Laboratory results from patent US20110092703A1, “P2X4 RECEPTOR ANTAGONIST” (NIPPON CHEMIPHAR CO., LTD., priority 2007, published 2011).
Where a name gives a salt, the structure may show the parent alone.

What was measured:
P2X4 receptor [1] = target: T1, P2X4 receptor (Homo sapiens, UniProt Q99571); details: disclosed in WO 2007/049825 / Abstract P3-N-114; cited from earlier work
T1 sequence (Q99571 1-388): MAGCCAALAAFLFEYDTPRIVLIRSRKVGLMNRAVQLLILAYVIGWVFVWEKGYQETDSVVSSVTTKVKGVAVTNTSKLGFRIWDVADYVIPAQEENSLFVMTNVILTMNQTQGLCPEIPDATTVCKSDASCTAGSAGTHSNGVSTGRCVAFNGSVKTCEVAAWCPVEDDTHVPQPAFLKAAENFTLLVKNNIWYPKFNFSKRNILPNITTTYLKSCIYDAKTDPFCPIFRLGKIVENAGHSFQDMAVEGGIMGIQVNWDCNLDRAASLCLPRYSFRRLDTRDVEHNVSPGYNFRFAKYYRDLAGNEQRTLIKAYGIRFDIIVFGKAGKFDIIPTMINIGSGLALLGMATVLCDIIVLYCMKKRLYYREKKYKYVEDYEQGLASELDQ

P2X4 receptor [2] = target: T1, P2X4 receptor; experiment: P2X4 antagonism study by measurement of intracellular Ca2+ influx response; assay type: cell-based; design: expressed in transfected cells; details: 1321N1 cells stably expressing human P2X4; 1 μM ATP; compound 15 min before ATP; Fura-2 F340/F380; read-out: Inhibitory activity: IC50
Experimental: (§1) 1321N1 cells stably expressing human P2X4 receptors were adopted for calcium influx assay. P2X4/1321N1 cells were plated in 96-well assay plate and cultured 24 hours in an atmosphere of 5% CO2 at 37° C. Fura-2 AM calcium indicator in assay buffer (150 mM NaCl, 5 mM KCl, 1.8 mM CaCl2, 1.2 mM MgCl2, 10 mM D-glucose and 25 mM HEPES, pH 7.4) was loaded onto cells for 1 hour at room temperature and the fluorescence was detected by FLUOstar Optima micro plate reader (BMG labtech). The cells were alternatively illuminated with two excitations wavelengths (340 nm and 380 nm) via xenon lamp and the emitted fluorescence was measured at 510 nm. The fluorescence changes after the treatment of 1 μM ATP were monitored and determined the fluorescence ratio (F340/F380) as the index of intracellular calcium change. Tested compound were treated to cells 15 min before the addition of ATP and the inhibition activity of compounds was calculated by comparing the Ca^2+ response with control in the absence of tested compound.
as §1, with “pH7.4)” for “pH 7.4)”

[3] = target: T2, human Serotonin transporter (Homo sapiens, UniProt P31645); experiment: [3H]paroxetine binding to serotonin transporter; details: read-out: Percent inhibition (10^−7 M)
T2 construct: expressed in transfected cells; cell membranes
Experimental: After incubation for 60 min at 25° C., the reaction was terminated by rapid filtration through GF/B glass fiber filter and rinsed with ice-cold incubation buffer. The retained radioactivity on filter was measured by a liquid scintillation counter. Nonspecific binding was defined with 10 μM imipramine and subtracted from total binding to determine specific binding. Inhibition activities of tested compounds were determined as a percent inhibition of the specific binding.

serotonin reuptake = target: T3, serotonin reuptake (Rattus norvegicus, UniProt P31652); experiment: Serotonin reuptake inhibition assay ([3H]serotonin, synaptosomes prepared from the rat brain); assay type: biochemical; details: 10^−7 M compound, 15 min at 37° C., read-out: Percent inhibition (10^−7 M)
T3 construct: synaptosomes prepared from the rat brain; from tissue; host or cells: rat brain synaptosomes
T3 sequence (P31652 whole entry): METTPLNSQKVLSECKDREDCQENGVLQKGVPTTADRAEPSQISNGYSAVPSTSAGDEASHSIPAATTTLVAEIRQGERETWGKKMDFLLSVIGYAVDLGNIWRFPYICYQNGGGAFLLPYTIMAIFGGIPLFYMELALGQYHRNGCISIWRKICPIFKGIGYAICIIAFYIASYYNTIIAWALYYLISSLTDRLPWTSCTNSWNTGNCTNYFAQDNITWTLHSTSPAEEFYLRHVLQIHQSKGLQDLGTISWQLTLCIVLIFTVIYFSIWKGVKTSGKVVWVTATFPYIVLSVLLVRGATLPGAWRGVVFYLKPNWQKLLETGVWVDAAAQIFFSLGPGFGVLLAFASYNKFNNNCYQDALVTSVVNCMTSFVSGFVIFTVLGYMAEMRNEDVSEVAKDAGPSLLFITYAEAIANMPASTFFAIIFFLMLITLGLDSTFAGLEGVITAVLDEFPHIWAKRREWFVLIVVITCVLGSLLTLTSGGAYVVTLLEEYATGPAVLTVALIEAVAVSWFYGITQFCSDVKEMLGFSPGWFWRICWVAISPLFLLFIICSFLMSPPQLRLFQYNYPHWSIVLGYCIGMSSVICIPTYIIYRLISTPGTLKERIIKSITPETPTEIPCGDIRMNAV
Experimental: 100 μg of the synaptosomes prepared from the rat brain were incubated for 15 min at 37° C. with 0.1 μCi [^3H]serotonin in the presence of tested compound in a buffer containing 106.2 mM NaCl, 4.5 mM KCl, 2.25 mM MgSO4, 1.08 mM NaH2PO4, 22.5 mM NaHCO3, 9.9 mM glucose, 9 μM EGTA and 45 μM ascorbic acid (pH 7.4). Basal control activity was determined by incubating the same mixture for 15 min at 4′C in the presence of 10 μM imipramine. Following incubation, the samples were filtered rapidly under vacuum through GF/B glass fiber filters and rinsed twice with ice-cold incubation buffer using a cell harvester. The retained radioactivity on filters was measured in TopCount scintillation counter. The results were expressed as a percent inhibition of the specific binding in the absence of tested compound.
100 μg of the synaptosomes prepared from the rat brain were incubated for 15 min at 37° C. with 0.1 μCi [^3H]serotonin in the presence of tested compound in a buffer containing 106.2 mM NaCl, 4.5 mM KCl, 2.25 mM MgSO4, 1.08 mm NaH2PO4, 22.5 mM NaHCO3, 9.9 mM glucose, 9 μM EGTA and 45 μM ascorbic acid (pH 7.4). Basal control activity was determined by incubating the same mixture for 15 min at 4° C. in the presence of 10 μM imipramine. […] The retained radioactivity on filters was measured in TopCount scintillation counter. […]

T2 sequence (P31645 whole entry): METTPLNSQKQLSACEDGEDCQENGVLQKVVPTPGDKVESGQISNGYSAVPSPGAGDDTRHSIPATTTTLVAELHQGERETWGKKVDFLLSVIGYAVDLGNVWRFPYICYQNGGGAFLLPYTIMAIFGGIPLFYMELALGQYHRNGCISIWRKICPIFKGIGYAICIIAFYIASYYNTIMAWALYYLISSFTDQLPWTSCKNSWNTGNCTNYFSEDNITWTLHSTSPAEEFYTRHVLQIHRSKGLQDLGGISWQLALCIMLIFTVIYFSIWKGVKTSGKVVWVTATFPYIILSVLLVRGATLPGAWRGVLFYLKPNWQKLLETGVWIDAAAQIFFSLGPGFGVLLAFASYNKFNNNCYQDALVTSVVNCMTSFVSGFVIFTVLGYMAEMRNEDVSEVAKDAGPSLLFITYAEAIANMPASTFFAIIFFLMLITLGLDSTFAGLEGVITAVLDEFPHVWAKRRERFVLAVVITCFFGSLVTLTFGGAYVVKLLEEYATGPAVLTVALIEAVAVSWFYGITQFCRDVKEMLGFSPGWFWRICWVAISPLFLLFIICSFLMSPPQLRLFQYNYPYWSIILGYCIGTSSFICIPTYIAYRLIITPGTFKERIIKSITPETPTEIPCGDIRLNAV

| SMILES | IC50 (P2X4 receptor [2]) [µM] | inhibition at 0.1 µM [3] [%] | also measured |
| --- | --- | --- | --- |
| Fc1ccc([C@@H]2CCNC[C@H]2COc2ccc3c(c2)OCO3)cc1 [Paroxetine] | – | – | P2X4 receptor antagonism (in words) (P2X4 receptor [1]): shows P2X4 receptor antagonism |
| CC(C)c1ccc(N2CCNCC2COc2ccc(Cl)cc2)cc1 (centres unmarked) [Example 1, 2-(4-Chlorophenoxymethyl)-1-(4-isopropylphenyl)piperazine hydrochloride] | 6.9 | 17 | – |
| CN(C)CCCN1c2ccccc2CCc2ccccc21 [imipramine] | – | – | P2X4 receptor antagonism (in words) (P2X4 receptor [1]): shows P2X4 receptor antagonism |
| CC(C)c1ccc(N2CCNCC2COc2ccc(S(N)(=O)=O)cc2)cc1 (centres unmarked) [Example 15, 1-(4-Isopropylphenyl)-2-(4-sulfamoylphenoxymethyl)piperazine hydrochloride] | 6.3 | – | – |
| CC(C)c1cccc(N2CCNCC2COc2ccc(OC(C)(C)C)cc2)c1 (centres unmarked) [Example 13, 2-(4-tert-Butoxyphenoxymethyl)-1-(3-isopropylphenyl)piperazine hydrochloride] | 2.9 | – | – |
| CC(C)NS(=O)(=O)c1ccc(OCC2CNCCN2c2ccc(C(C)C)cc2)cc1 (centres unmarked) [Example 16, 1-(4-Isopropylphenyl)-2-[4-(isopropylsulfamoyl)phenoxymethyl]piperazine hydrochloride] | 2.8 | – | inhibition at 0.1 µM (serotonin reuptake): 11% |
| CCCc1ccc(N2CCNCC2COc2ccc(Cl)cc2)cc1 (centres unmarked) [Example 2, 2-(4-Chlorophenoxymethyl)-1-(4-propylphenyl)piperazine hydrochloride] | 7.6 | 31 | – |
| CC(C)c1cccc(N2CCNCC2COc2ccc(Cl)cc2)c1 (centres unmarked) [Example 3, 2-(4-Chlorophenoxymethyl)-1-(3-isopropylphenyl)piperazine hydrochloride] | 8.3 | 13 | – |
| CC(C)c1ccc(N2CCNCC2CSc2ccc(Cl)cc2)cc1 (centres unmarked) [Example 17, 2-(4-Chlorophenylsulfanylmethyl)-1-(4-isopropylphenyl)piperazine hydrochloride] | 8.1 | – | inhibition at 0.1 µM (serotonin reuptake): 4% |
| Cc1cccc(C)c1N1CCNCC1COc1ccc(Cl)cc1.Cl (centres unmarked) | – | – | melting point: 97 to 100 °C |
| CC(C)c1ccc(N2CCNCC2COc2ccc3c(c2)OCO3)cc1 (centres unmarked) [Example 11, 1-(4-Isopropylphenyl)-2-(3,4-methylenedioxyphenoxymethyl)piperazine hydrochloride] | 7.4 | – | – |
| Cc1cc(C)c(N2CCNCC2COc2ccc(Cl)cc2)c(C)c1 (centres unmarked) [Example 7, 2-(4-Chlorophenoxymethyl)-1-(2,4,6-trimethylphenyl)piperazine hydrochloride] | 3.1 | 26 | – |
| Clc1ccc(OCC2CNCCN2c2ccc3c(c2)CCC3)cc1 (centres unmarked) [Example 10, 2-(4-Chlorophenoxymethyl)-1-indan-5-yl-piperazine hydrochloride] | 4.7 | 44 | – |
